# Assays:
# Assay type in all cases: in vivo
# [1] = test system: barnyardgrass (Echinochloa crus-galli); assay: Test A preemergence, barnyardgrass; details: 0 to 100 scale, 0 is no effect, 100 is complete control
# Excerpt: (§1) Seeds of plant species selected from barnyardgrass (Echinochloa crus-galli), kochia (Kochia scoparia), ragweed (common ragweed, Ambrosia elatior), ryegrass, Italian (Lolium multiflorum), foxtail, giant (Setaria faberii), foxtail, green (Setaria viridis), and pigweed (Amaranthus retroflexus) were planted into a blend of loam soil and sand and treated preemergence with a directed soil spray using test chemicals formulated in a non-phytotoxic solvent mixture which included a surfactant.
# (§2) At the same time, plants selected from these weed species and also wheat (Triticum aestivum), corn (Zea mays), blackgrass (Alopecurus myosuroides), and galium (catchweed bedstraw, Galium aparine) were planted in pots containing the same blend of loam soil and sand and treated with postemergence applications of test chemicals formulated in the same manner. Plants ranged in height from 2 to 10 cm and were in the one- to two-leaf stage for the postemergence treatment. Treated plants and untreated controls were maintained in a greenhouse for approximately 10 d, after which time all treated plants were compared to untreated controls and visually evaluated for injury. Plant response ratings, summarized in Table A, are based on a 0 to 100 scale where 0 is no effect and 100 is complete control. A dash (-) response means no test result.
# [2] = test system: kochia (Kochia scoparia); assay: Test A preemergence, kochia; details: 0 to 100 scale, 0 is no effect, 100 is complete control
# Excerpt: as §1, §2
# [3] = test system: ragweed (common ragweed, Ambrosia elatior); assay: Test A preemergence, ragweed; details: 0 to 100 scale, 0 is no effect, 100 is complete control
# Excerpt: as §1, §2
# [4] = test system: ryegrass, Italian (Lolium multiflorum); assay: Test A preemergence, Italian ryegrass; details: 0 to 100 scale, 0 is no effect, 100 is complete control
# Excerpt: as §1, §2
# [5] = test system: foxtail, giant (Setaria faberii); assay: Test A preemergence, giant foxtail; details: 0 to 100 scale, 0 is no effect, 100 is complete control
# Excerpt: as §1, §2
# [6] = test system: pigweed (Amaranthus retroflexus); assay: Test A preemergence, pigweed; details: 0 to 100 scale, 0 is no effect, 100 is complete control
# Excerpt: as §1, §2
# [7] = test system: barnyardgrass (Echinochloa crus-galli); assay: Test A postemergence, barnyardgrass; details: 0 to 100 scale
# Excerpt: as §1, §2
# [8] = test system: kochia (Kochia scoparia); assay: Test A postemergence, kochia; details: 0 to 100 scale
# Excerpt: as §1, §2
# [9] = test system: ragweed (common ragweed, Ambrosia elatior); assay: Test A postemergence, ragweed; details: 0 to 100 scale
# Excerpt: as §1, §2
# [10] = test system: ryegrass, Italian (Lolium multiflorum); assay: Test A postemergence, Italian ryegrass; details: 0 to 100 scale
# Excerpt: as §1, §2
# [11] = test system: foxtail, giant (Setaria faberii); assay: Test A postemergence, giant foxtail; details: 0 to 100 scale
# Excerpt: as §1, §2
# [12] = test system: pigweed (Amaranthus retroflexus); assay: Test A postemergence, pigweed; details: 0 to 100 scale
# Excerpt: as §1, §2
# [13] = test system: wheat (Triticum aestivum); assay: Test A postemergence, wheat; details: 0 to 100 scale
# Excerpt: as §1, §2
# [14] = test system: blackgrass (Alopecurus myosuroides); assay: Test A postemergence, blackgrass; details: 0 to 100 scale
# Excerpt: as §1, §2
# [15] = test system: galium (catchweed bedstraw, Galium aparine); assay: Test A postemergence, galium; details: 0 to 100 scale
# Excerpt: as §1, §2
# [16] = test system: rice (Oryza sativa); assay: Test B flooded paddy test, rice; details: Flood, 250 g ai/ha, applied to paddy water, 2-leaf stage, visual evaluation after 13 to 15 d
# Procedure: (§3) Plant species in the flooded paddy test selected from rice (Oryza sativa), sedge, umbrella (small-flower umbrella sedge, Cyperus difformis), ducksalad (Heteranthera limosa), and barnyardgrass (Echinochloa crus-galli) were grown to the 2-leaf stage for testing. At the time of treatment, test pots were flooded to 3 cm above the soil surface, treated by application of test compounds directly to the paddy water, and then maintained at that water depth for the duration of the test. Treated plants and controls were maintained in a greenhouse for 13 to 15 d, after which time all species were compared to controls and visually evaluated. Plant response ratings, summarized in Table B, are based on a scale of 0 to 100 where 0 is no effect and 100 is complete control. A dash (-) response means no test result.
# [17] = test system: sedge, umbrella (small-flower umbrella sedge, Cyperus difformis); assay: Test B flooded paddy test, umbrella sedge; details: Flood, 250 g ai/ha, applied to paddy water, 2-leaf stage, visual evaluation after 13 to 15 d
# Procedure: as §3
# [18] = test system: ducksalad (Heteranthera limosa); assay: Test B flooded paddy test, ducksalad; details: Flood, 250 g ai/ha, applied to paddy water, 2-leaf stage, visual evaluation after 13 to 15 d
# Procedure: as §3
# [19] = test system: barnyardgrass (Echinochloa crus-galli); assay: Test B flooded paddy test, barnyardgrass; details: Flood, 250 g ai/ha, applied to paddy water, 2-leaf stage, visual evaluation after 13 to 15 d
# Procedure: as §3
# [20] = test system: corn (Zea mays); assay: Test A postemergence, corn; details: 0 to 100 scale, 0 no effect, 100 complete control
# Excerpt: as §1, §2
# [21] = 500 g ai/ha, 0 is no effect, 100 is complete control
# [22] = 125 g ai/ha, 0 no effect, 100 complete control
# [23] = 500 g ai/ha, 0 no effect, 100 complete control
# [24] = 31 g ai/ha, 0 no effect, 100 complete control
smiles,measurement,setting,value
"C[C@@H](Nc1ncc(C(F)(F)F)c(N)n1)c1coc2ccccc12 [Compound 52, N2-[(1R)-1-(3-benzofuranyl)ethyl]-5-(trifluoromethyl)-2,4-pyrimidinediamine]",Barnyardgrass plant response rating,[1]; 125 g ai/ha,70
same,Barnyardgrass plant response rating,[1]; 500 g ai/ha,100
same,Kochia plant response rating,[2]; 125 g ai/ha,90
same,Kochia plant response rating,[2]; 500 g ai/ha,100
same,Ragweed plant response rating,[3]; 125 g ai/ha,100
same,Ragweed plant response rating,[3]; 500 g ai/ha,100
same,"Ryegrass, Italian plant response rating",[4]; 125 g ai/ha,80
same,"Ryegrass, Italian plant response rating",[4]; 500 g ai/ha,90
same,"Foxtail, Giant plant response rating",[5]; 125 g ai/ha,90
same,"Foxtail, Giant plant response rating",[5]; 500 g ai/ha,100
same,Pigweed plant response rating,[6]; 125 g ai/ha,100
same,Pigweed plant response rating,[6]; 500 g ai/ha,100
same,Barnyardgrass plant response rating,[7]; [21],90
same,pest or weed control at 125 g/ha,"[7]; Echinochloa crus-galli, post-emergence, 240 h, 125 g ai/ha, 0 no effect, 100 complete control, read-out: Plant response rating, Barnyardgrass",30%
same,Kochia plant response rating,[8]; [21],90
same,pest or weed control at 125 g/ha,"[8]; Bassia scoparia, post-emergence, 240 h, 125 g ai/ha, 0 no effect, 100 complete control, read-out: Plant response rating, Kochia",90%
same,Ragweed plant response rating,[9]; [21],100
same,pest or weed control at 125 g/ha,"[9]; Ambrosia artemisiifolia, post-emergence, 240 h, 125 g ai/ha, 0 no effect, 100 complete control, read-out: Plant response rating, Ragweed",80%
same,"Ryegrass, Italian plant response rating",[10]; [21],100
same,pest or weed control at 125 g/ha,"[10]; Lolium multiflorum, post-emergence, 240 h, 125 g ai/ha, 0 no effect, 100 complete control, read-out: Plant response rating, Ryegrass, Italian",60%
same,"Foxtail, Giant plant response rating",[11]; [21],90
same,pest or weed control at 125 g/ha,"[11]; Setaria faberi, post-emergence, 240 h, 125 g ai/ha, 0 no effect, 100 complete control, read-out: Plant response rating, Foxtail, Giant",40%
same,Pigweed plant response rating,[12]; [21],100
same,pest or weed control at 125 g/ha,"[12]; Amaranthus retroflexus, post-emergence, 240 h, 125 g ai/ha, 0 no effect, 100 complete control, read-out: Plant response rating, Pigweed",100%
same,Wheat plant response rating,[13]; [21],30
same,plant injury at 125 g/ha,"[13]; Triticum aestivum, post-emergence, 240 h, 125 g ai/ha, 0 no effect, 100 complete control, read-out: Plant response rating, Wheat",0%
same,Blackgrass plant response rating,[14]; [21],90
same,pest or weed control at 125 g/ha,"[14]; Alopecurus myosuroides, post-emergence, 240 h, 125 g ai/ha, 0 no effect, 100 complete control, read-out: Plant response rating, Blackgrass",50%
same,Galium plant response rating,[15]; [21],90
same,pest or weed control at 125 g/ha,"[15]; Galium, post-emergence, 240 h, 125 g ai/ha, 0 no effect, 100 complete control, read-out: Plant response rating, Galium",80%
same,plant injury at 250 g/ha,"[16]; Oryza sativa, 360 h, read-out: Plant response rating, Rice (0 to 100 scale, 0 is no effect, 100 is complete control)",10%
same,pest or weed control at 250 g/ha,"[17]; Cyperus difformis, 360 h, read-out: Plant response rating, Sedge, Umbrella (0 to 100 scale, 0 is no effect, 100 is complete control)",95%
same,pest or weed control at 250 g/ha,"[18]; Heteranthera limosa, 360 h, read-out: Plant response rating, Ducksalad (0 to 100 scale, 0 is no effect, 100 is complete control)",100%
same,pest or weed control at 250 g/ha,"[19]; Echinochloa crus-galli, 360 h, read-out: Plant response rating, Barnyardgrass (0 to 100 scale, 0 is no effect, 100 is complete control)",90%
Cc1ccc2c([C@@H](Nc3ncc(C(F)(F)F)c(N)n3)C3CC3)coc2c1 [Compound 91],Barnyardgrass plant response rating,[1]; 125 g ai/ha,0
same,Barnyardgrass plant response rating,[1]; 500 g ai/ha,0
same,Kochia plant response rating,[2]; 125 g ai/ha,0
same,Kochia plant response rating,[2]; 500 g ai/ha,0
same,Ragweed plant response rating,[3]; 125 g ai/ha,0
same,Ragweed plant response rating,[3]; 500 g ai/ha,0
same,"Ryegrass, Italian plant response rating",[4]; 125 g ai/ha,0
same,"Ryegrass, Italian plant response rating",[4]; 500 g ai/ha,30
same,"Foxtail, Giant plant response rating",[5]; 125 g ai/ha,0
same,"Foxtail, Giant plant response rating",[5]; 500 g ai/ha,0
same,Pigweed plant response rating,[6]; 125 g ai/ha,0
same,Pigweed plant response rating,[6]; 500 g ai/ha,0
same,"Plant response rating, Kochia",[8]; [22],0
same,"Plant response rating, Kochia",[8]; [23],0
same,"Plant response rating, Ragweed",[9]; [22],0
same,"Plant response rating, Ragweed",[9]; [23],0
same,"Plant response rating, Ryegrass, Italian",[10]; [22],0
same,"Plant response rating, Ryegrass, Italian",[10]; [23],0
same,"Plant response rating, Foxtail, Giant",[11]; [22],0
same,"Plant response rating, Foxtail, Giant",[11]; [23],0
same,"Plant response rating, Pigweed",[12]; [22],0
same,"Plant response rating, Pigweed",[12]; [23],0
same,"Plant response rating, Wheat",[13]; [22],0
same,"Plant response rating, Wheat",[13]; [23],0
same,"Plant response rating, Corn",[20]; 125 g ai/ha,0
same,"Plant response rating, Corn",[20]; 500 g ai/ha,0
same,"Plant response rating, Blackgrass",[14]; [22],0
same,"Plant response rating, Blackgrass",[14]; [23],0
same,"Plant response rating, Galium",[15]; [22],0
same,"Plant response rating, Galium",[15]; [23],0
same,"Plant response rating, Rice (0 to 100 scale, 0 is no effect, 100 is complete control)",[16],0
same,"Plant response rating, Sedge, Umbrella (0 to 100 scale, 0 is no effect, 100 is complete control)",[17],0
same,"Plant response rating, Ducksalad (0 to 100 scale, 0 is no effect, 100 is complete control)",[18],0
same,"Plant response rating, Barnyardgrass (0 to 100 scale, 0 is no effect, 100 is complete control)",[19],0
C[C@@H](Nc1ncc(C(F)(F)F)c(N)n1)c1cc2ccccc2[s+]1[O-] (stereo partly drawn) [Compound 113],Barnyardgrass plant response rating,[1]; 31 g ai/ha,0
same,Barnyardgrass plant response rating,[1]; 125 g ai/ha,0
same,Kochia plant response rating,[2]; 31 g ai/ha,20
same,Kochia plant response rating,[2]; 125 g ai/ha,80
same,Ragweed plant response rating,[3]; 31 g ai/ha,0
same,Ragweed plant response rating,[3]; 125 g ai/ha,20
same,"Ryegrass, Italian plant response rating",[4]; 31 g ai/ha,0
same,"Ryegrass, Italian plant response rating",[4]; 125 g ai/ha,30
same,"Foxtail, Giant plant response rating",[5]; 31 g ai/ha,0
same,"Foxtail, Giant plant response rating",[5]; 125 g ai/ha,10
same,"Plant response rating, Barnyardgrass",[7]; [24],0
same,"Plant response rating, Barnyardgrass",[7]; [22],0
same,"Plant response rating, Kochia",[8]; [24],30
same,"Plant response rating, Kochia",[8]; [22],70
same,"Plant response rating, Ragweed",[9]; [24],0
same,"Plant response rating, Ragweed",[9]; [22],40
same,"Plant response rating, Ryegrass, Italian",[10]; [24],0
same,"Plant response rating, Ryegrass, Italian",[10]; [22],0
same,"Plant response rating, Foxtail, Giant",[11]; [24],0
same,"Plant response rating, Foxtail, Giant",[11]; [22],0
same,"Plant response rating, Pigweed",[12]; [24],40
same,"Plant response rating, Pigweed",[12]; [22],100
same,"Plant response rating, Wheat",[13]; [24],0
same,"Plant response rating, Wheat",[13]; [22],0
same,"Plant response rating, Corn",[20]; 31 g ai/ha,20
same,"Plant response rating, Corn",[20]; 125 g ai/ha,0
same,"Plant response rating, Blackgrass",[14]; [24],0
same,"Plant response rating, Blackgrass",[14]; [22],0
same,"Plant response rating, Galium",[15]; [24],40
same,"Plant response rating, Galium",[15]; [22],70
same,"Plant response rating, Rice (0 to 100 scale, 0 is no effect, 100 is complete control)",[16],0
same,"Plant response rating, Sedge, Umbrella (0 to 100 scale, 0 is no effect, 100 is complete control)",[17],0
same,"Plant response rating, Ducksalad (0 to 100 scale, 0 is no effect, 100 is complete control)",[18],0
same,"Plant response rating, Barnyardgrass (0 to 100 scale, 0 is no effect, 100 is complete control)",[19],0

# Reference: patent publication US20220119354A1, “DIAMINO-SUBSTITUTED PYRIDINES AND PYRIMIDINES AS HERBICIDES” (FMC Corporation, priority 2019, published 2022)
